Target: T1, CK2α (Zea mays) (Zea mays, UniProt P28523)
T1 construct: gene ACK2; catalytic subunit CK2α alone
Assay: radiometric peptide phosphorylation assay, residual activity at […]
Type: biochemical

T1 sequence (P28523 whole entry): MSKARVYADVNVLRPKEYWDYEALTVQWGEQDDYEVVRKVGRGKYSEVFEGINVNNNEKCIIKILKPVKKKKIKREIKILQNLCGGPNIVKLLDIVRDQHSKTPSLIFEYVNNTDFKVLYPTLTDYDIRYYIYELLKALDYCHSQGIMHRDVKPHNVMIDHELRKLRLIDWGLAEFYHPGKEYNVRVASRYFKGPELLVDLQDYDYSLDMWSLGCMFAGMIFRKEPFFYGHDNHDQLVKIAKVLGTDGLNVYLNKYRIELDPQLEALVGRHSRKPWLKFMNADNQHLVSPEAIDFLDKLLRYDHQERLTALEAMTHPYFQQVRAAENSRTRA

activity at 1 µM: 33%
SMILES: O=C1c2ccc(O)c(O)c2C(=O)c2c(O)ccc(O)c21 [quinalizarin, 1,2,5,8-tetrahydroxyanthraquinone]
